Values of other authors in patent publication US7241583B2, “TRL1 as an antifungal target” (Oxford Glycosciences (UK) Ltd, priority 2002, dated 2007).

Conditions: mice; DOX 2 mg/ml in 5% sucrose solution as drinking water, approx. 5 ml per day

concentration of DOX in kidney: > 10 mg/g of kidney
concentration of DOX in liver: > 8 mg/g of liver
concentration of DOX in serum: more than 2 mg/ml of serum
SMILES: C[C@H]1c2cccc(O)c2C(O)=C2C(=O)[C@]3(O)C(O)=C(C(N)=O)C(=O)[C@@H](N(C)C)[C@@H]3[C@@H](O)[C@@H]21 [DOX, doxycycline]
